Measurements published in PubChem BioAssay (NCI).
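How tested: cells in 96-well plates exposed to compound for 48 hours at five concentrations. TGI: total growth inhibition.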

How the values were obtained:
Experiment in all cases: inhibition of tumour cell growth, NCI panel, 48 h
[1] = test system: 786-0 renal
[2] = test system: MOLT-4 leukemia
[3] = test system: HCT-15 colon
[4] = test system: NCI-H226 lung
[5] = test system: RXF 393 renal
[6] = test system: U251 CNS
[7] = test system: HOP-92 NSCLC
[8] = test system: SK-MEL-28 melanoma
[9] = test system: M14 melanoma
[10] = test system: M19-MEL melanoma
[11] = test system: RXF-631 renal
[12] = test system: KM12 colon
[13] = test system: SW-620 colon
[14] = test system: OVCAR-3 ovarian
[15] = test system: NCI-H460 lung
[16] = test system: NCI-H522 lung
[17] = test system: HCT-116 colon
[18] = test system: MALME-3M melanoma
[19] = test system: HT29 colon
[20] = test system: SK-OV-3 ovarian
[21] = test system: ACHN renal
[22] = test system: HCC-2998 colon
[23] = test system: EKVX NSCLC
[24] = test system: SNB-19 CNS
[25] = test system: NCI-H23 lung
[26] = test system: TK-10 renal
[27] = test system: UO-31 renal
[28] = test system: DMS 114 small cell lung
[29] = test system: DLD-1 colon
[30] = test system: SNB-75 CNS
[31] = test system: A549 NSCLC
[32] = test system: CAKI-1 renal
[33] = test system: RPMI-8226 leukemia
[34] = test system: UACC-62 melanoma
[35] = test system: IGROV1 ovarian
[36] = test system: KM20L2 colon
[37] = test system: HOP-62 NSCLC
[38] = test system: OVCAR-8 ovarian
[39] = test system: DMS 273 small cell lung
[40] = test system: CCRF-CEM leukemia
[41] = test system: UACC-257 melanoma
[42] = test system: SK-MEL-2 melanoma
[43] = test system: COLO 205 colon
[44] = test system: OVCAR-4 ovarian
[45] = test system: SF-268 CNS
[46] = test system: HL-60(TB) leukemia
[47] = test system: SN12C renal
[48] = test system: SF-295 CNS
[49] = test system: LXFL 529 NSCLC
[50] = test system: K-562 leukemia
[51] = test system: HOP-18 NSCLC
[52] = test system: SK-MEL-5 melanoma
[53] = test system: SNB-78 CNS
[54] = test system: XF 498 CNS
[55] = test system: SF-539 CNS
[56] = test system: OVCAR-5 ovarian
[57] = test system: LOX IMVI melanoma
[58] = test system: A498 renal
[59] = test system: SR leukemia

`CC(=O)Nc1ccccc1S(=O)(=O)c1ccccc1` was tested, and the TGI [1] was over 100 µM, the TGI [2] was over 100 µM and the TGI [3] was over 100 µM. It also gave a TGI [4] of over 100 µM, a TGI [5] of over 100 µM and a TGI [6] of over 100 µM. The TGI [7] was over 100 µM, the TGI [8] was over 100 µM and the TGI [9] was over 100 µM. For the same compound, the TGI [10] was over 100 µM, the TGI [11] was over 100 µM and the TGI [12] was over 100 µM. It also gave a TGI [13] of over 100 µM, a TGI [14] of over 100 µM and a TGI [15] of over 100 µM. It also gave a TGI [16] of over 100 µM, a TGI [17] of over 100 µM and a TGI [18] of over 100 µM. It also gave a TGI [19] of over 100 µM, a TGI [20] of over 100 µM and a TGI [21] of over 100 µM. For the same compound, the TGI [22] was over 100 µM, the TGI [23] was over 100 µM and the TGI [24] was over 100 µM. The TGI [25] was over 100 µM, the TGI [26] was over 100 µM and the TGI [27] was over 100 µM. The TGI [28] was over 100 µM, the TGI [29] was over 100 µM and the TGI [30] was over 100 µM. The TGI [31] was over 100 µM, the TGI [32] was over 100 µM and the TGI [33] was over 100 µM. It also gave a TGI [34] of over 100 µM, a TGI [35] of over 100 µM and a TGI [36] of over 100 µM. The TGI [37] was over 100 µM, the TGI [38] was over 100 µM and the TGI [39] was over 100 µM. The TGI [40] was over 100 µM, the TGI [41] was over 100 µM and the TGI [42] was over 100 µM. The TGI [43] was over 100 µM, the TGI [44] was over 100 µM and the TGI [45] was over 100 µM. For the same compound, the TGI [46] was over 100 µM, the TGI [47] was over 100 µM and the TGI [48] was over 100 µM. For the same compound, the TGI [49] was over 100 µM, the TGI [50] was over 100 µM and the TGI [51] was over 100 µM. It also gave a TGI [52] of over 100 µM, a TGI [53] of over 100 µM and a TGI [54] of over 100 µM. It also gave a TGI [55] of over 100 µM, a TGI [56] of 5.65 µM and a TGI [57] of over 100 µM. For the same compound, the TGI [58] was over 100 µM.
In the case of `OCn1nc2c(C3OCCO3)cc3ccccc3n2c1=S`, the TGI [1] is reported as over 100 µM, the TGI [2] is reported as over 100 µM and the TGI [3] is reported as over 100 µM. The TGI [4] was over 100 µM, the TGI [5] was over 100 µM and the TGI [6] was over 100 µM. It also gave a TGI [7] of over 100 µM, a TGI [8] of over 100 µM and a TGI [9] of over 100 µM. The TGI [10] was over 100 µM, the TGI [11] was over 100 µM and the TGI [59] was over 100 µM. It also gave a TGI [12] of over 100 µM, a TGI [13] of over 100 µM and a TGI [14] of over 100 µM. For the same compound, the TGI [15] was over 100 µM, the TGI [16] was over 100 µM and the TGI [17] was over 100 µM. It also gave a TGI [18] of over 100 µM, a TGI [19] of over 100 µM and a TGI [20] of over 100 µM. It also gave a TGI [21] of over 100 µM, a TGI [23] of over 100 µM and a TGI [24] of over 100 µM. The TGI [25] was over 100 µM, the TGI [26] was over 100 µM and the TGI [27] was over 100 µM. For the same compound, the TGI [28] was over 100 µM, the TGI [29] was over 100 µM and the TGI [30] was over 100 µM. The TGI [31] was over 100 µM, the TGI [32] was over 100 µM and the TGI [33] was over 100 µM. For the same compound, the TGI [34] was over 100 µM, the TGI [35] was over 100 µM and the TGI [36] was over 100 µM. For the same compound, the TGI [37] was over 100 µM, the TGI [38] was over 100 µM and the TGI [39] was over 100 µM. It also gave a TGI [40] of over 100 µM, a TGI [41] of over 100 µM and a TGI [42] of over 100 µM. The TGI [43] was over 100 µM, the TGI [44] was over 100 µM and the TGI [45] was over 100 µM. For the same compound, the TGI [46] was over 100 µM, the TGI [47] was over 100 µM and the TGI [48] was over 100 µM. For the same compound, the TGI [49] was over 100 µM, the TGI [50] was over 100 µM and the TGI [51] was over 100 µM. The TGI [52] was over 100 µM, the TGI [53] was over 100 µM and the TGI [54] was over 100 µM. The TGI [55] was over 100 µM, the TGI [56] was over 100 µM and the TGI [57] was over 100 µM. For the same compound, the TGI [58] was over 100 µM.
For `COC(=O)/C(=N\NC(N)=O)C(C(=O)C(=O)Nc1ccccc1C(=O)OC)c1nc2ccc(C(=O)c3ccccc3)cc2[nH]c1=O` (stereo not drawn), the TGI [1] was over 100 µM, the TGI [2] was over 100 µM and the TGI [3] was over 100 µM. The TGI [4] was over 100 µM, the TGI [6] was over 100 µM and the TGI [7] was over 100 µM. It also gave a TGI [8] of over 100 µM, a TGI [9] of over 100 µM and a TGI [10] of over 100 µM. For the same compound, the TGI [11] was over 100 µM, the TGI [59] was over 100 µM and the TGI [12] was over 100 µM. The TGI [13] was over 100 µM, the TGI [14] was over 100 µM and the TGI [15] was over 100 µM. For the same compound, the TGI [16] was over 100 µM, the TGI [17] was over 100 µM and the TGI [18] was over 100 µM. The TGI [19] was over 100 µM, the TGI [20] was over 100 µM and the TGI [21] was over 100 µM. For the same compound, the TGI [22] was over 100 µM, the TGI [23] was over 100 µM and the TGI [24] was over 100 µM. The TGI [25] was over 100 µM, the TGI [26] was over 100 µM and the TGI [27] was over 100 µM. For the same compound, the TGI [28] was over 100 µM, the TGI [29] was over 100 µM and the TGI [30] was over 100 µM. For the same compound, the TGI [31] was over 100 µM, the TGI [32] was over 100 µM and the TGI [33] was over 100 µM. For the same compound, the TGI [34] was over 100 µM, the TGI [35] was over 100 µM and the TGI [36] was over 100 µM. The TGI [37] was over 100 µM, the TGI [38] was over 100 µM and the TGI [39] was over 100 µM. For the same compound, the TGI [40] was over 100 µM, the TGI [41] was over 100 µM and the TGI [42] was over 100 µM. The TGI [44] was over 100 µM, the TGI [45] was over 100 µM and the TGI [46] was over 100 µM. It also gave a TGI [47] of over 100 µM, a TGI [48] of over 100 µM and a TGI [49] of over 100 µM. It also gave a TGI [50] of over 100 µM, a TGI [51] of over 100 µM and a TGI [52] of over 100 µM. The TGI [53] was over 100 µM, the TGI [54] was over 100 µM and the TGI [55] was over 100 µM. The TGI [56] was over 100 µM, the TGI [57] was over 100 µM and the TGI [58] was over 100 µM.
